Converted amounts (≈) assume the structure as drawn.
What was measured:
Candida albicans MY 1055 = test: Antifungal Assay (minimum inhibitory concentration, Candida albicans MY 1055); format: cell-based; conditions: Yeast Nitrogen Base/0.5% glucose; inoculum 3-5×10^-4 CFU/ml; 37° C., 18 hours; lowest concentration that inhibits visible growth
Method: Antifungal activity was determined against Candida albicans MY 1055, a yeast strain maintained by Merck and Co., Rahway, New Jersey. Minimum inhibitory concentrations were determined using a starting inoculum of 3-5×10^-4 CFU/ml. The medium was Yeast Nitrogen Base/0.5% glucose. Test compounds were dissolved in a minimum amount of 50% aqueous ethanol and diluted to final concentrations with yeast medium. Samples were incubated at 37° C. for 18 hours. The minimum inhibitory concentration (MIC), reported in μg/ml, is the lowest concentration of test compound that inhibits visible growth.

[1] = molecular target: T1, Acetoacetyl-coenzyme A thiolase (Rattus norvegicus, UniProt Q5XI22); test: Acetoacetyl-Coenzyme A Thiolase Inhibition; format: biochemical, Sprague Dawley rats; conditions: Table II; text: IC50, concentration that inhibits 50% of thiolase activity; enzyme from livers of lovastatin-treated rats; pH 7.5, room temperature, 340 nm NADH oxidation; read-out: MIC
T1 construct: prepared from the livers of Sprague Dawley rats treated in the diet for one week with 0.075% lovastatin to induce the enzyme; from tissue; host or cells: liver of lovastatin-fed Sprague Dawley rats
T1 sequence (Q5XI22 whole entry): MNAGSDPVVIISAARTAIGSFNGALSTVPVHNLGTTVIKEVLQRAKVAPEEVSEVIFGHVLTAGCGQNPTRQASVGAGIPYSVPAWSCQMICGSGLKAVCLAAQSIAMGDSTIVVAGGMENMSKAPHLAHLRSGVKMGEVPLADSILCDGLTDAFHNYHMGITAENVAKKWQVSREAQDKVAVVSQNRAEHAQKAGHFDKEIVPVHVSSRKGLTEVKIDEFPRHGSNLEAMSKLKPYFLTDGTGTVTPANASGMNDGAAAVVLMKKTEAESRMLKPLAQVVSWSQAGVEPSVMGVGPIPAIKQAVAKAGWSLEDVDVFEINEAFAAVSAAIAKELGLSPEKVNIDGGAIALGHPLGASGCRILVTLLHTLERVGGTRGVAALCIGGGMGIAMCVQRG
Method: Acetoacetyl-coenzyme A thiolase was prepared from the livers of Sprague Dawley rats treated in the diet for one week with 0.075% lovastatin to induce the enzyme. Acetoacetyl-coenzyme A thiolase was purified through the DEAE-cellulose step essentially as described by Mehrabian et al., J. Biol. Chem., 261, 16249-16255 (1986), but modified slightly by carrying out the 30-50% ammonium sulfate precipitation of the enzyme and a dialysis before the DEAE-cellulose step. The 0.06M eluate described by Mehrabian et al. contained the acetoacetyl-coenzyme A thiolase. The isolate was concentrated by ammonium sulfate precipitation, dissolved in the buffer used for elution, and stored at -70° C.
Inhibition of acetoacetyl-coenzyme A thiolase was measured by coupling the formation of acetoacetyl-coenzyme A to its subsequent reduction by β-hydroxybutyryl-coenzyme A dehydrogenase to β-hydroxybutyryl-coenzyme A and monitoring the resultant oxidation of NADH with a spectrophotometer set at 340 nm. […] Reaction was measured at room temperature for a time period necessary to produce a measurable reaction rate. […]

cytosolic β-ketothiolase = conditions: background statement; cited from earlier work
certain fungal strains = conditions: background statement; cited from earlier work
[2] = tested on: certain bacterial strains; conditions: background statement; cited from earlier work
[3] = background statement; cited from earlier work

SMILES | MIC (Candida albicans MY 1055) [µg/mL] | IC50 [1] [µM] | inhibitor of cytosolic β-ketothiolase (cytosolic β-ketothiolase) | active against certain fungal strains (certain fungal strains) | active against certain bacterial strains [2] | instability of the compound in vivo [3]
COC(=O)CCCCCC[C@@H]1OC(=O)O[C@H]1C(O)C#CC#CC#C[Si](C)(C)C (single isomer, unassigned) [Ex. 6] | 0.6 (≈ 1.48 µM) | – | – | – | – | –
CC#CC#CC#C[C@@H](OC)[C@@H]1OC(=O)O[C@H]1CCCCCCC(=O)OC [Ex. 13, 5-(1(R)-Methoxy-2,4,6-octatriynyl)-2-oxo-4(S),5(S)-1,3-dioxolane-4-heptanoic acid, methyl ester] | 5 (≈ 13.9 µM) | 0.56 | – | – | – | –
C#CC#CC#CC(O)C1OC(=O)OC1CCCCCCC(=O)O (stereo not shown) [triyne carbonate A, 5-(1-hydroxy-2,4,6-heptatriynyl)-2-oxo-1,3-dioxolane-4-heptanoic acid] | – | – | potent inhibitor | active | active | relative instability
